System: KRAS patient-derived spheroids with HUVEC/MSC, viability
Test: Anticancer human tumor 519858-162-T-J1-PDC patient-derived colon adenocarcinoma cell line growth inhibition [KRAS2]
Conditions: for IC50: curve of first compound; for viability, T/C: stronger effect = lower value
Text: Multicellular complex tumor spheroid response to RAS pathway inhibitors in combination with a targeted agents in patient-derived cell lines with oncogenic KRAS variants from multiple cancer types
A high-throughput screen of multi-cell type tumor spheroids was designed to identify active combinations of targeted small molecules and KRAS pathway inhibitors. Complex spheroids include a stromal component modeled by human endothelial cells (HUVEC) and fibroblasts modeled by human mesenchymal stem cells (MSCs). The concentration ranges selected for each drug and investigational agent were based upon clinically achievable concentrations if the clinical Cmax of the agent was known.
Compounds. The drugs and investigational agents: BI-3406 (NSC825286), BAY-293 (NSC824723), batoprotafib (TNO155; NSC825523), sotorasib (AMG 510; NSC818433), MRTX1257 (NSC819558), elimusertib (BAY 1895344; NSC800525), molibresib (GSK525762; NSC774829), temuterkib (LY3214996; NSC803410), venetoclax (NSC766270), alisertib (NSC759677), olaparib (NSC753686), talazoparib (NSC767125), erdafitinib (NSC781556), ipatasertib (NSC767898), cabozantinib (NSC761068), nintedanib (NSC756659), abemaciclib (NSC768073), docetaxel (NSC628503), trametinib (NSC758246), and sapanisertib (NSC764658) were obtained from the National Cancer Institute (NCI) Developmental Therapeutics Program Chemical Repository. The FDA-approved anticancer drug set is available from the Developmental Therapeutics Program. […] The stock solutions were prepared in dimethyl sulfoxide (DMSO, Sigma-Aldrich, St. Louis, MO, cat. D2650) at 800-fold the tested concentration and stored at -70 degrees C prior to their use. All drugs and investigational agents were tested over a range starting from a high concentration at or near the clinical Cmax and decreasing in half-log increments. If the clinical Cmax for an agent had not been determined, the highest concentration tested was 10 microM.
Cell Culture. All cells were maintained in an incubator at 37 degrees C and 5% CO2 with 95% humidity. The PDC lines were cultured according to standard operating procedures established by the NCI PDMR (https://pdmr.cancer.gov/sops/default.htm). Briefly, all PDCs were thawed and cultured in Matrigel-coated flasks prepared with a working solution of 1X Ham's F-12 nutrient mix, without supplementation (Invitrogen, Waltham, MA, cat. 11765054), 100 U/mL penicillin-streptomycin (Invitrogen, cat. 15140122), and 2.5% Matrigel (Corning Inc., Corning, NY, cat. 354248) for the first three passages. All PDCs were cultured in complete DMEM/F-12 media containing advanced DMEM/F-12 (Invitrogen, cat. 12634028), 4.9% defined fetal bovine serum, heat inactivated (HyClone Laboratories Inc., Logan, UT, cat. SH30070.03HI), 389 ng/mL hydrocortisone (Sigma-Aldrich, cat. H4001), 9.7 ng/mL human EGF recombinant protein (Invitrogen, cat. PHG0313), 23.4 microg/mL adenine (Sigma-Aldrich, cat. A2786), 97.3 U/mL penicillin-streptomycin (Invitrogen, cat. 15140122), 1.9 mM L-glutamine (Invitrogen, cat. 25030081), and 9.7 microM Y-27632 dihydrochloride (Tocris Bioscience, Bristol, United Kingdom, cat. 1254). The PDCs were cultured in complete DMEM/F12 media without 9.7 microM Y-27632 dihydrochloride for at least two passages prior to the screen. The established cell line HOP-62 was cultured in RPMI 1640 medium, HEPES (Invitrogen, cat. 22400105) with 10% defined fetal bovine serum (HyClone Laboratories Inc., cat. SH30070.03) and 2 mM L-glutamine (Invitrogen, cat. 25030081). The pooled donor HUVEC were cultured in endothelial cell growth medium 2 (PromoCell, Heidelberg, Germany, cat. C-22011) and the hMSC were cultured in mesenchymal stem cell growth medium 2 (PromoCell, cat. C-28009). For all experiments, HUVEC and hMSC were used at passages </=5, while the malignant cell lines were used at passages </=15. […]

[1] = second compound 0.1 µM, first compound 0.0316 µM
[2] = second compound 0.1 µM, first compound 0.1 µM
[3] = second compound 0.1 µM, first compound 0.316 µM
[4] = second compound 0.1 µM, first compound 1 µM
[5] = second compound 0.316 µM, first compound 0.0316 µM
[6] = second compound 0.316 µM, first compound 0.1 µM
[7] = second compound 0.316 µM, first compound 0.316 µM
[8] = second compound 0.316 µM, first compound 1 µM
[9] = second compound 1 µM, first compound 0.0316 µM
[10] = second compound 1 µM, first compound 0.1 µM
[11] = second compound 1 µM, first compound 0.316 µM
[12] = second compound 1 µM, first compound 1 µM
[13] = second compound 3.16 µM, first compound 0.0316 µM
[14] = second compound 3.16 µM, first compound 0.1 µM
[15] = second compound 3.16 µM, first compound 0.316 µM
[16] = second compound 3.16 µM, first compound 1 µM
[17] = second compound 10 µM, first compound 0.0316 µM
[18] = second compound 10 µM, first compound 0.1 µM
[19] = second compound 10 µM, first compound 0.316 µM
[20] = second compound 10 µM, first compound 1 µM
[21] = second compound 0.1 µM, first compound 0.00316 µM
[22] = second compound 0.1 µM, first compound 0.01 µM
[23] = second compound 0.316 µM, first compound 0.00316 µM
[24] = second compound 0.316 µM, first compound 0.01 µM
[25] = second compound 1 µM, first compound 0.00316 µM
[26] = second compound 1 µM, first compound 0.01 µM
[27] = second compound 3.16 µM, first compound 0.00316 µM
[28] = second compound 3.16 µM, first compound 0.01 µM
[29] = second compound 10 µM, first compound 0.00316 µM
[30] = second compound 10 µM, first compound 0.01 µM
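Further: compound exposure lasted seven days before readout.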
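Wherever viability, T/C is given: 100% = DMSO vehicle control viability.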

Compound | IC50 (second compound 0.1 µM) | IC50 (second compound 0.316 µM) | IC50 (second compound 1 µM) | IC50 (second compound 3.16 µM) | IC50 (second compound 10 µM) | viability, T/C [1] | viability, T/C [2] | viability, T/C [3] | viability, T/C [4] | viability, T/C [5] | viability, T/C [6] | viability, T/C [7] | viability, T/C [8] | viability, T/C [9] | viability, T/C [10] | viability, T/C [11] | viability, T/C [13] | viability, T/C [14] | viability, T/C [17] | viability, T/C [18] | further results
CCNC(=O)CC1N=C(c2ccc(Cl)cc2)c2cc(OC)ccc2-n2c(C)nnc21 (stereo not given) + CNCc1ccccc1-c1csc(C(C)Nc2nc(C)nc3cc(OC)c(OC)cc23)c1 | 2250 nM | 1370 nM | 510 nM | 73.9 nM | < 31.6 nM | 82.5% | 109% | 87.2% | 67.5% | 81.5% | 74.5% | 65.6% | 52.4% | 61.1% | 59% | 54.2% | 51.9% | 54% | 0.36% | 1.18% | viability, T/C (second compound 0.1 µM, first compound 3.16 µM): 43.8%; viability, T/C (second compound 0.1 µM, first compound 10 µM): 19.8%; viability, T/C (second compound 0.316 µM, first compound 3.16 µM): 41.2%; viability, T/C (second compound 0.316 µM, first compound 10 µM): 25.6%; viability, T/C [12]: 44%; viability, T/C (second compound 1 µM, first compound 3.16 µM): 34.9%; viability, T/C (second compound 1 µM, first compound 10 µM): 24.2%; viability, T/C [15]: 37.5%; viability, T/C [16]: 29.1%; viability, T/C (second compound 3.16 µM, first compound 3.16 µM): 23.9%; viability, T/C (second compound 3.16 µM, first compound 10 µM): 9.53%; viability, T/C [19]: 0.49%; viability, T/C [20]: 0.46%; viability, T/C (second compound 10 µM, first compound 3.16 µM): 0.69%; viability, T/C (second compound 10 µM, first compound 10 µM): 0.69%
CN(C)C/C=C/C(=O)Nc1cc2c(Nc3ccc(F)c(Cl)c3)ncnc2cc1O[C@H]1CCOC1 + CNCc1ccccc1-c1csc(C(C)Nc2nc(C)nc3cc(OC)c(OC)cc23)c1 | > 100 nM | > 100 nM | > 100 nM | 10.5 nM | < 0.316 nM | 84% | 77.8% | – | – | 69.5% | 54.6% | – | – | 89.2% | 68.9% | – | 61.6% | 37.3% | 0.8% | 0.42% | viability, T/C (second compound 0.1 µM, first compound 0.000316 µM): 118%; viability, T/C (second compound 0.1 µM, first compound 0.001 µM): 89.8%; viability, T/C [21]: 70.9%; viability, T/C [22]: 63.4%; viability, T/C (second compound 0.316 µM, first compound 0.000316 µM): 81.1%; viability, T/C (second compound 0.316 µM, first compound 0.001 µM): 74.8%; viability, T/C [23]: 70.2%; viability, T/C [24]: 59.4%; viability, T/C (second compound 1 µM, first compound 0.000316 µM): 64.8%; viability, T/C (second compound 1 µM, first compound 0.001 µM): 59.2%; viability, T/C [25]: 55.2%; viability, T/C [26]: 51%; viability, T/C (second compound 3.16 µM, first compound 0.000316 µM): 60.6%; viability, T/C (second compound 3.16 µM, first compound 0.001 µM): 61%; viability, T/C [27]: 47.7%; viability, T/C [28]: 43.5%; viability, T/C (second compound 10 µM, first compound 0.000316 µM): 0.31%; viability, T/C (second compound 10 µM, first compound 0.001 µM): 0.87%; viability, T/C [29]: 0.47%; viability, T/C [30]: 0.36%
CCN1CCN(Cc2ccc(Nc3ncc(F)c(-c4cc(F)c5nc(C)n(C(C)C)c5c4)n3)nc2)CC1 + C=CC(=O)N1CCN(c2nc(=O)n(-c3c(C)ccnc3C(C)C)c3nc(-c4c(O)cccc4F)c(F)cc23)C(C)C1 | > 1000 nM | > 1000 nM | > 1000 nM | 742 nM | 265 nM | 71.9% | 72.4% | 78.6% | 59.3% | 79.2% | 62.2% | 66% | 49.2% | 83.6% | 60.4% | 72.8% | 69.3% | 73.9% | 51.8% | 75.7% | viability, T/C [21]: 83%; viability, T/C [22]: 67.4%; viability, T/C [23]: 98.6%; viability, T/C [24]: 96.5%; viability, T/C [25]: 61.9%; viability, T/C [26]: 111%; viability, T/C [12]: 50.4%; viability, T/C [27]: 84.2%; viability, T/C [28]: 93.7%; viability, T/C [15]: 64.6%; viability, T/C [16]: 44.6%; viability, T/C [29]: 109%; viability, T/C [30]: 97.7%; viability, T/C [19]: 60.5%; viability, T/C [20]: 23.4%

From PubChem BioAssay AID1963872 (Molecular Pharmacology Branch, DTP, NCI, 2024)
